In one assay the test system is DU-145. Description: Prostate cancer cell cytotoxicity, crystal violet assay, DU-145. It is filed as cell-based, human. How it is done:
(§1) Toxicity to the three prostate cancer cell lines, LNCaP, DU-145, and PC-3 were measured in two different media, RPMI-1640 and DMEM (Dulbecco's Modified Eagle Medium), both supplemented with 10% fetal bovine serum.
(§2) Cell lines were maintained in vitro in RPMI 1640 media or DMEM, each supplemented with 10% fetal bovine serum, 2 mM L-glutamine, 10 mM HEPES buffer, penicillin (100 units/mL) and streptomycin (100 μg/mL).
(§3) Cells were dissociated with trypsin/EDTA, counted, and suspended in growth media (RPMI or DMEM) to a concentration of 5.6×10^3 cells/mL. Cell suspensions were dispensed in 180 μL aliquots into 96-well tissue culture plates. […] Each 100× solution was diluted 10× in growth media (RPMI or DMEM), and a 20 μL aliquot of the resulting 10× solution was immediately (<10s) added to-the appropriate lane. Additionally, one lane was treated with 20 μL of 10% DMSO in growth media (no drug) and one lane was treated with 200 μL of 1.5 M Tris buffer (no cells). The cells were incubated with the drugs for 3 h at 37° C. The drug solutions were then removed and replaced with 200 μL of fresh media. The cells were incubated for 4 days (7 days for PC-3 cells in DMEM) at 37° C. in a humidified atmosphere of 5% CO2 and 95% air. Cell survival was determined using a crystal violet assay as described earlier (Fenick, D. J. et al (1997) J. Med. Chem. 40: 2452-2461).

For another assay, the system named is PC-3. The experiment in a line: Prostate cancer cell cytotoxicity, crystal violet assay, PC-3. It is filed as cell-based, human. How it is done: as §1, §2, §3
A further assay has as its system MCF-7 cells. Description: In vitro cytotoxicity, colony formation by crystal violet assay, MCF-7. How it is done:
(§4) The term IC50 as used herein refers to the concentration of drug which inhibits cell growth by 50%, i.e., 50% of cells are viable at the IC50 concentration relative to a no-drug control.
(§5) Cells were incubated with drug for 3 h in RPMI (Roswell Park Memorial Institute) 1640 media containing 10% fetal bovine serum and 1% DMSO. Plates, were developed using the crystal violet assay. […] In all cases percent survival was determined by the extent of colony formation six days after drug treatment.
(§6) All tissue culture materials were obtained from Gibco Life Technologies (Grand Island, N.Y.) unless otherwise stated. MCF-7 breast cancer cells were obtained from American Type Culture Collection (Rockville, Md.). […] Both cell lines were maintained in vitro by serial culture in phenol red-free RPMI Media 1640 supplemented with 10% fetal bovine serum (Gemini Bio-Products, Calbasas, Calif.), L-glutamine (2 mM), HEPES buffer (10 mM), penicillin (100 units/mL), and streptomycin (100 μg/mL). […] Cells were maintained at 37° C. in a humidified atmosphere of 5% CO2 and 95% air.
(§7) Cells were dissociated with trypsin-EDTA, counted, and suspended in growth media to a concentration of 5×10^3 cells/mL. Cell suspensions were dispensed in 200 μL aliquots into 96-well tissue culture plates. Plates were then incubated for 24 h at 37° C. in a humidified atmosphere of 5% CO2 and 95% air. The media was replaced with 180 μL of growth media prior to addition of the cytotoxic agents.
(§8) Concentrations were then corrected by measuring the solution absorbance at 480 nm (ε=11,500/mole anthracycline). The solutions were then serially diluted in DMSO to give a series of 100× working concentration solutions. For each concentration, the 100× solution was diluted 1:10 in serum-free RPMI Media 1640. 20 μL of the resulting […] solution was immediately added to the appropriate lane. Additionally, one lane was treated with 20 μL of 10% DMSO in serum-free RPMI (no drug) and one lane replaced with 200 μL of 1.5 M Tris buffer (no cells). The cells were incubated at 37° C. for 3 h. The drug solutions were removed and 200 μL of fresh growth media was added to each well.
(§9) The extent of colony formation was determined by use of a crystal violet staining assay (Gilles, R. J. et al. (1986), “Determination of cell number in monolayer cultures,” Anal. Biochem. 159:109-113; Reile, H. et al. (1990), “Computerized determination of growth kinetic curves and doubling times from cells in microcultures,” Anal. Biochem. 187:262-267). […] The cells were then stained with 75 μL of 0.1% crystal violet in deionized water for 30 min. […] The plates were blotted dry and 200 μL of 70% ethanol in water was added to each well to solublize the dye. The plates were stored at 4° C. until solubilization was complete (about 4 h). The optical density of each well was measured on an ELISA plate reader at 588 nm. Relative colony sizes were determined by comparison of the drug treated lanes to the control lanes.
(§10) MCF-7 breast cancer cells were obtained from American Type Culture Collection (Rockville, Md.). MCF-7/ADR adriamycin resistant breast cancer cells were a gift of Dr. William W. Wells (Michigan State University). Both cell lines were maintained in vitro by serial culture in phenol red-free RPMI Media 1640 supplemented with 10% fetal bovine serum (Gemini Bio-Products, Calbasas, Calif.), L-glutamine (2 mM), HEPES buffer ([…]), penicillin (100 units/mL), and streptomycin (100 μg/mL). […] Cells were maintained at 37° C. in a humidified atmosphere of 5% CO2 and 95% air.
1640 media containing 10% fetal bovine serum. The resulting 90% media/10% DMSO solutions (v/v) were incubated at 37° C. for 6h.

A further assay concerns LNCaP. The experiment in a line: Prostate cancer cell cytotoxicity, crystal violet assay, LNCaP. It is filed as cell-based, human. How it is done: as §1, §2, §3
Another assay relates to MCF-7/ADR cells. The experiment in a line: In vitro cytotoxicity, colony formation by crystal violet assay, MCF-7/ADR. How it is done:
as §4, §5, §6, §7, §8, §9, §10
These were then diluted 10× with autoclaved Millipore water.

Assay [1] concerns self-complementary DNA octamer (GC)4. The experiment in a line: Drug-DNA conjugate formation with (GC)4, HPLC. The note with it: 5 h. It is filed as biochemical. How it is done:
The amount of available formaldehyde was 99 μM (3×33 μM). […] The experiment was also run at 25° C. in pH 6.0 phosphate buffer containing 4% DMSO. […] The ratio for conjugate 1 was assumed to be 24:1, based upon the value for conjugate 2. […] Under these circumstances, the conjugate 1 area was estimated based upon its 480 nm absorbance, assuming the 24:1 ratio for A260:A480.
The formation of drug-DNA conjugates at 25° C. was monitored by HPLC (Method II). […] The experiment was also run in pH 6.0 phosphate buffer containing 4% DMSO.

Where [2] appears, read: Homo sapiens, DU-145, DMEM with 10% fetal bovine serum, 3 h drug, 4 days growth, read-out: IC50 Values, DU-145/DMEM (converted).
Where [3] appears, read: Homo sapiens, PC-3, DMEM with 10% fetal bovine serum, 3 h drug, 7 days growth, read-out: IC50 Values, PC-3/DMEM (converted).
Setting [4] is: Homo sapiens, PC-3, RPMI-1640 with 10% fetal bovine serum, 3 h drug, 4 days growth, read-out: IC50 Values, PC-3/RPMI-1640 (converted).
The mark [5] stands for this setting: Homo sapiens, MCF7, read-out: IC50 Values, MCF-7.
Where [6] appears, read: Homo sapiens, LNCaP, DMEM with 10% fetal bovine serum, 3 h drug, 4 days growth, read-out: IC50 Values, LNCaP/DMEM (converted).
[7] abbreviates: Homo sapiens, LNCaP, RPMI-1640 with 10% fetal bovine serum, 3 h drug, 4 days growth, read-out: IC50 Values, LNCaP/RPMI-1640 (converted).
Where [8] appears, read: Homo sapiens, NCI/ADR-RES, read-out: IC50 Values, MCF-7-ADR.

Read-outs that look alike come from different tables or passages of the source.

As to `COc1cccc2c1C(=O)c1c(O)c3c(c(O)c1C2=O)C[C@@](O)(C(=O)CO)C[C@@H]3O[C@H]1C[C@H](N)[C@@H](O)[C@H](C)O1` [EPI, epidoxorubicin, reference compound], the IC50 in the assay on DU-145 (setting [2]) was 40 nM; in the assay with PC-3 (setting [3]), 60 nM; with PC-3 (setting [4]) it was 30 nM; in the assay with MCF-7 cells (setting [5]), 200 nM; in the assay on MCF-7 cells (Homo sapiens, MCF7, read-out: IC50 Values, MCF-7, Media/Serum), more than 10000 nM; in the assay on LNCaP (setting [6]) it was 20 nM. For the same compound, the IC50 with LNCaP (setting [7]) was 20 nM; in the assay with MCF-7/ADR cells (setting [8]), more than 10000 nM. The “DNA reacted to form drug-DNA conjugates” value in assay [1] (33 μM (GC)4, 66 μM epidoxorubicin plus 99 μM formaldehyde, pH 6.0, 4% DMSO) was determined as 51%; in assay [1] (33 μM (GC)4, 66 μM epidoxorubicin plus 99 μM formaldehyde, pH 7.3, 4% DMSO, 25° C.), 75%; in assay [1] (166 μM (GC)4, 664 μM epidoxorubicin plus 996 μM HCHO, pH 7.3, 4% DMSO, 25° C.), 93%.
On to `C=O` [formaldehyde, reference compound], for which the IC50 in the assay on MCF-7 cells (Homo sapiens, MCF7, read-out: IC50 value, control experiment, MCF-7) is more than 200000 nM; with MCF-7/ADR cells (Homo sapiens, NCI/ADR-RES, read-out: IC50 value, control experiment, MCF-7/ADR), more than 200000 nM.
`COc1cccc2c1C(=O)c1c(O)c3c(c(O)c1C2=O)C[C@@](O)(C(=O)CO)C[C@@H]3O[C@H]1C[C@H](N)[C@H](O)[C@H](C)O1` [DOX, doxorubicin, reference compound]: the IC50 was 60 nM with DU-145 (setting [2]); 60 nM with PC-3 (setting [3]); 30 nM in the assay on PC-3 (setting [4]); 15 nM with LNCaP (setting [6]); 20 nM with LNCaP (setting [7]); 10000 nM with MCF-7/ADR cells (setting [8]).
As for `COc1cccc2c1C(=O)c1c(O)c3c(c(O)c1C2=O)C[C@@](O)(C(C)=O)C[C@@H]3O[C@H]1C[C@H](N)[C@H](O)[C@H](C)O1` [DAUN, daunorubicin, reference compound], the IC50 stood at 25 nM in the assay on DU-145 (Homo sapiens, DU-145, read-out: IC50 Values, DU-145/DMEM); 100 nM in the assay with DU-145 (Homo sapiens, DU-145, read-out: IC50 Values, DU-145/RPMI-1640); 20 nM in the assay with PC-3 (Homo sapiens, PC-3, read-out: IC50 Values, PC-3/DMEM); 20 nM in the assay with PC-3 (Homo sapiens, PC-3, read-out: IC50 Values, PC-3/RPMI-1640); 60 nM in the assay with MCF-7 cells (setting [5]); 8 nM in the assay with LNCaP (Homo sapiens, LNCaP, read-out: IC50 Values, LNCaP/DMEM). Besides, the IC50 in the assay on LNCaP (Homo sapiens, LNCaP, read-out: IC50 Values, LNCaP/RPMI-1640) turned out to be 20 nM; in the assay with MCF-7/ADR cells (setting [8]), 2000 nM.
Turning to `COc1cccc2c1C(=O)c1c(O)c3c(c(O)c1C2=O)C[C@@](O)(C(=O)CO)C[C@@H]3O[C@H]1C[C@H]2[C@@H](OCN3CN2CO[C@H]2[C@H](C)O[C@@H](O[C@H]4C[C@](O)(C(=O)CO)Cc5c(O)c6c(c(O)c54)C(=O)c4c(OC)cccc4C6=O)C[C@@H]23)[C@H](C)O1` [EPIF], the IC50 in the assay with DU-145 (DMEM with 10% fetal bovine serum, 3 h drug, 4 days growth, read-out: IC50 Values, DU-145/DMEM (converted)) was 4 nM; in the assay on DU-145 (RPMI-1640 with 10% fetal bovine serum, 3 h drug, 4 days growth, read-out: IC50 Values, DU-145/RPMI-1640 (converted)), 15 nM; in the assay with PC-3 (DMEM with 10% fetal bovine serum, 3 h drug, 7 days growth, read-out: IC50 Values, PC-3/DMEM (converted)), 15 nM; in the assay on PC-3 (RPMI-1640 with 10% fetal bovine serum, 3 h drug, 4 days growth, read-out: IC50 Values, PC-3/RPMI-1640 (converted)), 3.5 nM; in the assay on MCF-7 cells (read-out: IC50 Values, MCF-7, Media/Serum, drug preincubated 6 h at 37° C. in 10% DMSO/90% RPMI 1640 containing 10% fetal bovine serum) it was 200 nM; in the assay with MCF-7 cells (read-out: IC50 Values, MCF-7, 3 h drug incubation in RPMI 1640, 10% fetal bovine serum, 1% DMSO, colony formation six days after treatment, fresh drug solution) it was 32.5 nM. Also, the IC50 in the assay on LNCaP (DMEM with 10% fetal bovine serum, 3 h drug, 4 days growth, read-out: IC50 Values, LNCaP/DMEM (converted)) is 1 nM; in the assay with LNCaP (RPMI-1640 with 10% fetal bovine serum, 3 h drug, 4 days growth, read-out: IC50 Values, LNCaP/RPMI-1640 (converted)) it was 3.5 nM; in the assay with MCF-7/ADR cells (read-out: IC50 Values, MCF-7-ADR, EPIF/DMSO, drug stored in DMSO (not dried) for 20 h at ambient temperature before treatment), 150 nM; with MCF-7/ADR cells (read-out: IC50 Values, MCF-7-ADR, EPIF/H2O, drug preincubated in 90% H2O/10% DMSO at 37° C. for 20 h (equilibrium mixture with intermediates B, C, D)), 200 nM; in the assay on MCF-7/ADR cells (read-out: IC50 Values, MCF-7-ADR, 3 h drug incubation in RPMI 1640, 10% fetal bovine serum, 1% DMSO, colony formation six days after treatment, fresh drug solution), 35 nM; in the assay on MCF-7/ADR cells (read-out: IC50 Values, MCF-7/ADR, Media/Serum, drug preincubated 6 h at 37° C. in 10% DMSO/90% RPMI 1640 containing 10% fetal bovine serum), 150 nM.

(Values after patent publication US6677309B1, “Anti-cancer drug aldehyde conjugate drugs with enhanced cytotoxicity compounds, compositions and methods” (University Technology Corporation, priority 1997, dated 2004).)
